Values quoted from earlier work in patent US20140135284A1, “COMPOSITION OF AQUEOUS BUFFER SOLUTION FOR THE TREATMENT OF CELLULAR ENVIRONMENT AND ION CHANNELS AND METHODS FOR USING SAME” (priority 2007, published 2014).

Test system: inflammation
Conditions: acid species studied, small reductions in pH

SMILES | effect on inflammation
CC(O)C(=O)O (centres unmarked) [Lactic acid] | effective anti-inflammatory
Cl [Hydrochloric acid] | upregulated inflammation
